Experimental data reported in article PMC9681820, “A PDE10A inhibitor CPL500036 is a novel agent modulating striatal function devoid of most neuroleptic side-effects” (Frontiers in Pharmacology, 2022).
Read-outs that look alike come from different tables or passages of the source.

Key:
Acetylcholinesterase = biological target: T1, Acetylcholinesterase (Homo sapiens, UniProt P22303); test: SafetyScreen44 enzyme inhibition; type: biochemical; settings: read-out: % Inh (percent inhibition of the activity of the control enzyme)
T1 construct: purchased Eurofins Cerep (SafetyScreen44)
T1 sequence (P22303 32-614): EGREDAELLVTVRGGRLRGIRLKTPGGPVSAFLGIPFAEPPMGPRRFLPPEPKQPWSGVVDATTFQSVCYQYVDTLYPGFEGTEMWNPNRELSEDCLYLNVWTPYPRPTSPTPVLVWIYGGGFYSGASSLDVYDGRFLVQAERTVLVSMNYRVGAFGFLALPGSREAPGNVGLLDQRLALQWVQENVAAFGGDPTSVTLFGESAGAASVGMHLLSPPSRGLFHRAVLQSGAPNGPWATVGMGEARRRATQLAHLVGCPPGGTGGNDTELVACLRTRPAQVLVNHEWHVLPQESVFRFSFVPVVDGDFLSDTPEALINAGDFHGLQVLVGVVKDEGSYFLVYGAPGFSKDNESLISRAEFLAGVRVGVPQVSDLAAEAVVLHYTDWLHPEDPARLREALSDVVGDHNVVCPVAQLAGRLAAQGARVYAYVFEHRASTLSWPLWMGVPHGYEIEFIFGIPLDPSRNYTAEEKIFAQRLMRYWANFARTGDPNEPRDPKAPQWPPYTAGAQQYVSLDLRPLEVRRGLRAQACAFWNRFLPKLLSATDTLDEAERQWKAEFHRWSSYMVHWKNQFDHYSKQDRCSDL
Experimental: (§1) The SafetyScreen44® assay was carried out by Eurofins (Poitiers, France) according to the service-provider’s protocol. CPL500036 (1 µM) was tested against a panel of […] potential off-targets proteins, including G protein-coupled receptors (GPCRs), transporters, ion channels, nuclear receptors kinases and other non-kinase enzymes, by use of a set of the binding assays.
(§2) Binding of CPL500036 was calculated as the percent binding inhibition of a radioactively labeled ligand specific for each target. Enzyme inhibition of CPL500036 was calculated as the percent inhibition of the activity of the control enzyme. “No interaction” was denoted if inhibition ≤ 25% of specific binding of the control. Determination of muscarinic acetylcholine receptor (M2) activity induced by CPL500036 (antagonism and agonism) was undertaken in human recombinant CHO cells by measurement of the intracellular cAMP level according to the service-provider’s protocol. IC50 (concentration causing a half-maximal inhibition of specific binding of the control) or EC50 (concentration causing a half-maximal response of specific binding of the control) and the Hill coefficient were determined by non-linear regression analysis of the competition curves generated with mean replicate values using Hill-equation curve fitting with software developed at Cerep (Celle-Lévescault, France).

Cyclooxygenase 1 = biological target: T2, Cyclooxygenase 1 (Homo sapiens, UniProt P23219); test: SafetyScreen44 enzyme inhibition; type: biochemical; settings: read-out: % Inh (percent inhibition of the activity of the control enzyme)
T2 construct: purchased Eurofins Cerep (SafetyScreen44)
T2 sequence (P23219 24-599): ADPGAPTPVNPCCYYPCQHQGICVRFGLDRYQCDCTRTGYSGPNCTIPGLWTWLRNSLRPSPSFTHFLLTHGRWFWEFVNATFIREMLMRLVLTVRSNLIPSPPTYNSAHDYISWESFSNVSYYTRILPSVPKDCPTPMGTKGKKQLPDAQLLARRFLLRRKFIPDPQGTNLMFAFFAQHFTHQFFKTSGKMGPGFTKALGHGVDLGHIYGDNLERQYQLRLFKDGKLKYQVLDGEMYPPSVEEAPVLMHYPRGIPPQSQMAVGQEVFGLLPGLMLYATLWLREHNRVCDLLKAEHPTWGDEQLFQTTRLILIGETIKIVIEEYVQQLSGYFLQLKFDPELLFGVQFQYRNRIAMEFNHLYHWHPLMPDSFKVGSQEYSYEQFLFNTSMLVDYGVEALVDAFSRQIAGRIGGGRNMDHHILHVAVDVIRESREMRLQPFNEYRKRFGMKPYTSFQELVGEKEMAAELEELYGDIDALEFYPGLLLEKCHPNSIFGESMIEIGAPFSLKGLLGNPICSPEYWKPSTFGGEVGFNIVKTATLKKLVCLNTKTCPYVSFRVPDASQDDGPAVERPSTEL
Experimental: as §1, §2

Cyclooxygenase 2 = biological target: T3, Cyclooxygenase 2 (Homo sapiens, UniProt P35354); test: SafetyScreen44 enzyme inhibition; type: biochemical; settings: read-out: % Inh (percent inhibition of the activity of the control enzyme)
T3 construct: purchased Eurofins Cerep (SafetyScreen44)
T3 sequence (P35354 18-604): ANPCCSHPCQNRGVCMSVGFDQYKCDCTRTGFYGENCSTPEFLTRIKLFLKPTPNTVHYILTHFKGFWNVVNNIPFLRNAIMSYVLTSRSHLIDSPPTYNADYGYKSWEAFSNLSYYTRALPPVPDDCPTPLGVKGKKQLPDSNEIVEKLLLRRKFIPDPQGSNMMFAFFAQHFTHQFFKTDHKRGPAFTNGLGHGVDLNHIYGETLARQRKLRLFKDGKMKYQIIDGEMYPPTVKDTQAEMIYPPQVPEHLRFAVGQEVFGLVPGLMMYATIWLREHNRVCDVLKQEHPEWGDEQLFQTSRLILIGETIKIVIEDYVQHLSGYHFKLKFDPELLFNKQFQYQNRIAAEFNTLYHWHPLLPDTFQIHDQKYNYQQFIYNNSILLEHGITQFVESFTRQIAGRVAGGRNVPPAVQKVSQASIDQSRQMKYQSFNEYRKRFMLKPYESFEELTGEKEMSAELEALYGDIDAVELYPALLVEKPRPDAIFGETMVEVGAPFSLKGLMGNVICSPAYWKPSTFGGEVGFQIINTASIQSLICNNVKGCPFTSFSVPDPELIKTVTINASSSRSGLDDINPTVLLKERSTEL
Experimental: as §1, §2

[1] = biological target: T4, lymphocyte-specific protein tyrosine kinase (Homo sapiens, UniProt P06239); test: SafetyScreen44 enzyme inhibition; type: biochemical; settings: read-out: % Inh (percent inhibition of the activity of the control enzyme)
T4 construct: purchased Eurofins Cerep (SafetyScreen44)
T4 sequence (P06239 whole entry): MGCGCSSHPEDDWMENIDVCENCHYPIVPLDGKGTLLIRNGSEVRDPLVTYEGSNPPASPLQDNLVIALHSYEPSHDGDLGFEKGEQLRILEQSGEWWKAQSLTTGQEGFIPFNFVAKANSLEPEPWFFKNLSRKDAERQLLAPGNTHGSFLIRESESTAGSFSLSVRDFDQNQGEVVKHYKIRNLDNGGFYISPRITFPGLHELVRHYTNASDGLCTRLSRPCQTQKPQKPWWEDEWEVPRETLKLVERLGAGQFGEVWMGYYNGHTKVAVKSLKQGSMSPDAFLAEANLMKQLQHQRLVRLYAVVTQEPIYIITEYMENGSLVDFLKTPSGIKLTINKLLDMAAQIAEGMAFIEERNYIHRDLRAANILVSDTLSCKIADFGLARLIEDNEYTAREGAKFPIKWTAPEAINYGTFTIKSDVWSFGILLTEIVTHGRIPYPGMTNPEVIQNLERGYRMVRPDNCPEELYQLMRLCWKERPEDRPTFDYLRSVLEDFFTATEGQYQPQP
Experimental: as §1, §2

phosphodiesterase 3A = biological target: T5, phosphodiesterase 3A (Homo sapiens, UniProt Q14432); test: SafetyScreen44 enzyme inhibition; type: biochemical; settings: read-out: % Inh (percent inhibition of the activity of the control enzyme)
T5 construct: purchased Eurofins Cerep (SafetyScreen44)
T5 sequence (Q14432 whole entry): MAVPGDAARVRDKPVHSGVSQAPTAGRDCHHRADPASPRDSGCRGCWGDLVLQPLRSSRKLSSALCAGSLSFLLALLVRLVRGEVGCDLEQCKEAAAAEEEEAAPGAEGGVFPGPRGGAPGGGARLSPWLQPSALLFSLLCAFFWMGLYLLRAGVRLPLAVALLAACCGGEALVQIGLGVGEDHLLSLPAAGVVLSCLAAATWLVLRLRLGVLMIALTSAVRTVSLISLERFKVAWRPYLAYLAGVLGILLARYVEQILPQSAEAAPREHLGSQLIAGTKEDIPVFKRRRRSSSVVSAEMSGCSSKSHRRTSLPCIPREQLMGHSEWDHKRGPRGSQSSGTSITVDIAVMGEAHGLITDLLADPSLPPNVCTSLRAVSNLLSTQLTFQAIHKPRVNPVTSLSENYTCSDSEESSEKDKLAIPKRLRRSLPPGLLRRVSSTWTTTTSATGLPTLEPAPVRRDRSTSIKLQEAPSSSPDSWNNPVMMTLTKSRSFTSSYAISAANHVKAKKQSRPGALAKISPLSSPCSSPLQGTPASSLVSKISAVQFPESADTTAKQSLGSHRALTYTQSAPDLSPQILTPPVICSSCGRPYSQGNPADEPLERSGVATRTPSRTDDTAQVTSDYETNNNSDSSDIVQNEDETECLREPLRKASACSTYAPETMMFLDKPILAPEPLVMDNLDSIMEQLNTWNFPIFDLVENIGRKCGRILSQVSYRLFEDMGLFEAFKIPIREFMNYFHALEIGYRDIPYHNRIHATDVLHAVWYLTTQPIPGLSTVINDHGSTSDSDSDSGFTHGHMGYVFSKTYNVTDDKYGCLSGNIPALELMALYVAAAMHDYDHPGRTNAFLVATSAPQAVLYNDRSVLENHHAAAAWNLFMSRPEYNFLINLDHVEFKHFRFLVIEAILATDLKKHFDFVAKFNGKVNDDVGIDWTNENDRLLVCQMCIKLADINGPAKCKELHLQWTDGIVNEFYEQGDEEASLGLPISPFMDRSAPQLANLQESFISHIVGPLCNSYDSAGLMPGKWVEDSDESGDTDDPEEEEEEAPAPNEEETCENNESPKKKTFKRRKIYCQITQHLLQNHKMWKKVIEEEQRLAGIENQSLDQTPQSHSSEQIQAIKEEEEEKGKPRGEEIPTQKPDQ
Experimental: as §1, §2

phosphodiesterase 4 = biological target: T6, phosphodiesterase 4 (Homo sapiens, UniProt Q08499); test: SafetyScreen44 enzyme inhibition; type: biochemical; settings: read-out: % Inh (percent inhibition of the activity of the control enzyme)
T6 construct: purchased Eurofins Cerep (SafetyScreen44)
T6 sequence (Q08499 whole entry): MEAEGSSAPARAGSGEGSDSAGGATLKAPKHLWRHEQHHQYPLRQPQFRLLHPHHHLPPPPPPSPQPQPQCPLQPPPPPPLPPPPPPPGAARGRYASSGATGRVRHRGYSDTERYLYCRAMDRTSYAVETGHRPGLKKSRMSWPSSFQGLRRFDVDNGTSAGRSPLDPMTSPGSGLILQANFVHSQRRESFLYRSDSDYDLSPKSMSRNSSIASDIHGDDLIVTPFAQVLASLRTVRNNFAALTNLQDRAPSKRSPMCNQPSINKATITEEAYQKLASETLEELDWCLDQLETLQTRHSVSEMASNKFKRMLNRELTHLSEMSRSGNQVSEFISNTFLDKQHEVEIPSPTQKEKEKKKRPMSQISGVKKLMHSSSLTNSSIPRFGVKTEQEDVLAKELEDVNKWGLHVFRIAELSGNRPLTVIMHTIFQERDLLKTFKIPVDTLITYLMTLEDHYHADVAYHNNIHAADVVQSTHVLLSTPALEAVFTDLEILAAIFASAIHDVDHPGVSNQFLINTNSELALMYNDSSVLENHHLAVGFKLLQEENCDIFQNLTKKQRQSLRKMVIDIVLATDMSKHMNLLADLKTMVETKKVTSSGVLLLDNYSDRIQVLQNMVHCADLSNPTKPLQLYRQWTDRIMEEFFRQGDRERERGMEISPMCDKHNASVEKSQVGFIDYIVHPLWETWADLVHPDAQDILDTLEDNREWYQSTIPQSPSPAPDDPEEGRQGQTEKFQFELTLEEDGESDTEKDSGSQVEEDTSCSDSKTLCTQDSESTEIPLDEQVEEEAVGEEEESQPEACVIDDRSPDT
Experimental: as §1, §2

[2] = test system: Salmonella typhimurium TA98; test: Ames test; settings: CPL500036 5000µg/plate, n=3
[3] = test system: Salmonella typhimurium TA100; settings: CPL500036 5000µg/plate, n=3
[4] = test system: Escherichia coli WP2 uvrA; test: Ames test; settings: CPL500036 5000µg/plate, n=3
[5] = Pharmacokinetics after oral gavage in dogs (plasma); type: in vivo; settings: both sexes, Beagle, dog plasma, 1.5 mg/kg oral gavage, mean ± SD, n = 4
Experimental: The study was carried out in 40 male Wistar Han rats (∼10 weeks; Tri-City Academic Laboratory Animal Centre, Research and Services Centre, Medical University of Gdansk). Rats were fasted for 12 h (water was available at libitum) before administration and fed 4 h post-dose. Rats received CPL500036 (3 mg/kg per oral gavage). At each of eight time points (15 min, 30 min as well as 1 h, 2 h, 4 h, 7 h, 12 h, and 24 h), five rats were killed by exsanguination, and samples of blood and brain were harvested. Two male and two female Beagle dogs (10.5–13 months old, MediTox s.r.o., Konarovice, Czech Republic) received CPL500036 in a dose of 1.5 mg/kg per oral gavage. Blood was taken by venepuncture from v. cephalica antebrachii at twelve time points (0 min, 15 min, 30 min as well as 1 h, 2 h, 3 h, 4 h, 6 h, 8 h, 12 h, 24 h, and 48 h.
Blood was collected into tubes containing the anticoagulant K2EDTA and centrifuged (2,000 × g, 15 min, 4°C) to obtain plasma. Brain samples were homogenized in water. Plasma and brain homogenates were stored at −80°C until analyses. Acetonitrile (150 μl) spiked with internal standard (donepezil; MilliporeSigma) was added to 50 μl of each plasma homogenate or brain homogenate, respectively. The mixture was shaken vigorously for 2 min and then centrifuged (4,000 × g, 4 min, room temperature). Supernatants were injected into a high-performance liquid chromatography system (Infinity™ 1,260; Agilent Technologies, Santa Clara, CA, United States) with a Zorbax SB column ([…]; 1.8 μm; Agilent Technologies). The mobile phase was ammonium formate (20 mM, pH 3.0) and acetonitrile with 0.1% formic acid. The gradient chromatographic separation used a flow rate of 0.4 ml/min for 7.5 min at a nominal temperature of 30°C. Signal acquisition was undertaken for 5.5 min using of a triple quadrupole mass spectrometer (6,460 series; Agilent Technologies) with electrospray ionization (5500 V, 320°C). Multiple-reaction monitoring was applied to detect the following transitions of the m/z ratio: 342.0–220.9 and 342–235.9 for CPL500036; 380.5–362.9 and 380.5–243.5 for donepezil. The drug concentration was calculated from the ratio of the peak area response relative to the internal standard using a standard curve.

Beagle dogs = test: In vivo cardiovascular safety, telemetry; settings: 1.5 mg/kg, 10 mg/kg or 30 mg/kg, p.o., n = 4, free-base form
Description: Four male Beagle dogs who had been implanted previously with telemetry transmitter devices (Data Sciences, Saint Paul, MN, United States) were used. The number of animals corresponds to the standard approach used for such studies ([Smith et al., 2002]; [Authier et al., 2020]) and includes the accepted study sensitivity and ethics for use of nonrodent species ([ICH S7A Safety Pharmacology Studies for Human Pharmaceuticals, 2001]; [Smith et al., 2002]; [Authier et al., 2020]). The study consisted of four acquisition sessions using a crossover design with dosing intervals of ≥ 48 h. In each experimental session, each dog received (via oral gavage) a different treatment: either vehicle or CPL500036 (1.5 mg/kg, 10 mg/kg or 30 mg/kg). Cardiovascular safety was assessed on arterial blood pressure (systolic, diastolic and mean), heart rate (HR) and electrocardiography (RR interval, PR interval, QRS duration, uncorrected QT and corrected QT (QTc) for heart rate using van de Water correction) acquired continuously for ≥ 2 h before dosing, and for ≥ 24 h post-dose. All parameters were evaluated before and at 13-time points after treatment (15 min, 30 min as well as 1 h, 2 h, 3 h, 4 h, 5 h, 6 h, 8 h,12 h, 16 h, 20 h, and 24 h after dosing).

[6] = With metabolic activation (+S9 mix), 2AA 2µg/plate
[7] = Without metabolic activation (-S9 mix), NPD 4µg/plate
[8] = Without metabolic activation (-S9 mix), SAZ 2µg/plate
[9] = Without metabolic activation (-S9 mix), MMS 2µg/plate

SMILES: Cc1ncc(C)n2nc(-c3ccn4cc(-c5ccccc5)nc4n3)nc12 [CPL500036, 7-[5,8-Dimethyl-(1,2,4)triazolo (1,5-a)pyrazin-2-yl]-2-phenylimidazo (1,2-a) pyrimidine]
- inhibition at 1 µM (Acetylcholinesterase): 13.7%
- inhibition at 1 µM (Cyclooxygenase 1): -9.5%
- inhibition at 1 µM (Cyclooxygenase 2): -0.4%
- inhibition at 1 µM [1]: -1.9%
- inhibition at 1 µM (phosphodiesterase 3A): -15.2%
- inhibition at 1 µM (phosphodiesterase 4): 0.8%
- Mutation rate [2, 6]: 0.92
- Revertants Mean±SD [2, 6]: 18.3±8.02
- Mutation rate [2, 7]: 0.74
- Revertants Mean±SD [2, 7]: 14.3±1.15
- Mutation rate [3, 6]: 0.82
- Revertants Mean±SD [3, 6]: 62.3±9.02
- Mutation rate [3, 8]: 1.02
- Revertants Mean±SD [3, 8]: 66.3±1.08
- Mutation rate [4, 6]: 1.76
- Revertants Mean±SD [4, 6]: 42.3±2.89
- Mutation rate [4, 9]: 1.12
- Revertants Mean±SD [4, 9]: 22.3±2.08
- Cmax [5]: 98.3 ± 55.4 ng/mL
- Tmax [5]: 1.3 ± 0.5 h
- half-life [5]: 2.1 ± 1.7 h
- AUC(0-t) ([5]; read-out: AUC(0–24h)): 199 ± 106 ng·h/mL
- electrocardiography parameters (particularly QTcv and QRS duration) (Beagle dogs): Noticeable alterations in any of the electrocardiography parameters analyzed (particularly QTcv and QRS duration) were not observed
- heart rate (Beagle dogs): significant differences were not seen compared with the vehicle control group
- systolic, diastolic and mean blood pressures (Beagle dogs): Remarkable variations in systolic, diastolic and mean blood pressures were not recorded
